Source: article PMC8459971, “Evaluation of the hepatotoxicity of the novel GPR40 (FFAR1) agonist CPL207280 in the rat and monkey” (PLoS ONE, 2021)
Where “and” joins values, the source holds several entries; their conditions need not be identical. Equal entries are not always repeated. Where two headings read alike, the source gives them in different places.

Columns and labels:
[1] = Stability in microsomes, human; format: in vitro ADME; conditions: for average DEG [%]: human microsomes, with cofactors
Procedure: (§1) The final incubation volume was 500 μL. Two control compounds (verapamil and donepezil) were included for each microsomal species, along with the appropriate vehicle control. The reactions were terminated by transferring 50 μL of incubate to 100 μL methanol containing an internal standard (metoprolol) at appropriate time points (0, 10, 20, 40, 60, and 120 min for the test compound and 0, 5, 10, 20, 40, and 60 min for the control compounds). The termination plates were centrifuged at 4000 x g at 4°C for 30 min to precipitate the protein. The supernatants were then collected for analysis, and LC-MS/MS was used for detection purposes. The system consisted of an Acquity™ Binary Solvent Manager, Acquity™ 4-position heated column manager, 2777 Ultra High Pressure Autosampler, and a Xevo-TQ MS triple quadrupole mass spectrometer (Waters Ltd., Herts, UK). This process was carried out twice.

[2] = Stability in microsomes, monkey; format: in vitro ADME; conditions: for average DEG [%]: monkey microsomes, with cofactors
Procedure: as §1

HepG2 = test: Viability assay, HepG2 cells, MTT test, 48 h; format: cell-based, human; conditions: for viability, normalized to DMSO-treated controls: sheet Fig1 panel B (HepG2), 48 h, replicates, in % (unit assumed)
Procedure: (§2) To study the viability of the liver cells, 5 × 10^3 HepG2 (ATCC®) or human primary cells (ThermoFisher Scientific, USA) were seeded in 100 μL of DMEM media (Gibco; Thermo Fisher Scientific, USA) supplemented with fetal bovine serum (FBS)- in a 96-well plate. […] The experiments were performed in triplicates.

[3] = Viability assay, HepG2 cells, MTT test, 48 h; format: cell-based, human; conditions: human, HepG2 cells, sheet Fig1 panel B (HepG2), 48 h, replicates, read-out: viability, normalized to DMSO-treated controls
Procedure: as §2

MRP2 = MRP2 (Homo sapiens, UniProt Q92887); test: Vesicular transport inhibition assay, MRP2; conditions: for Accumulation (counts per minute; CPM) with AMP / Accumulation (counts per minute; CPM) with ATP: MRP2;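 also: membrane vesicles with probe substrate plus 2 mM glutathione, incubated with 4 mM ATP or AMP (AMP as background control), vesicle-retained substrate measured by liquid scintillation counting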;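 as to Accumulation (counts per minute; CPM) with AMP: ATP 4 mM vs AMP background separates transporter uptake from diffusion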;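 as to Accumulation (counts per minute; CPM) with ATP: ATP 4 mM vs AMP background separates transporter uptake from diffusion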
Procedure: In the vesicular transport inhibition assay (for BSEP, MRP) compounds were incubated with membrane vesicle preparations and the probe substrate. Incubations were carried out in the presence of 4 mM ATP or AMP to distinguish between transporter-mediated uptake and passive diffusion into the vesicles. For MRP2 and MRP3, reactions were carried out in the presence of 2 mM glutathione. Compounds were added to the reaction mixture in 0.75 μL of solvent (1% of the final incubation volume). […] Reactions were initiated by the addition of 25 μL of 12 mM MgATP (or 12 mM AMP in assay buffer as a background control) and preincubated separately. Reactions were quenched by the addition of 200 μL of ice-cold washing buffer and immediate filtration via glass fiber filters mounted on a 96-well plate (filter plate). The filters were washed (5 × 200 μL of ice-cold washing buffer), dried, and the amount of substrate inside the filtered vesicles was determined by liquid scintillation counting.

[4] = Single-dose pharmacokinetics in rats (p.o. and i.v.); format: in vivo, rat; set-up: plasma conc: unit not given here
[5] = Stability in microsomes, dog; format: in vitro ADME; conditions: for average DEG [%]: dog microsomes, with cofactors
Procedure: as §1

OATP1B3 = biological target: T1, OATP1B3 (Homo sapiens, UniProt Q9NPD5); test: Uptake transporter inhibition assay, OATP1B3; conditions: human, transformed HEK cells expressing OATP1B3, pH 7.4
T1 sequence (Q9NPD5 1-702): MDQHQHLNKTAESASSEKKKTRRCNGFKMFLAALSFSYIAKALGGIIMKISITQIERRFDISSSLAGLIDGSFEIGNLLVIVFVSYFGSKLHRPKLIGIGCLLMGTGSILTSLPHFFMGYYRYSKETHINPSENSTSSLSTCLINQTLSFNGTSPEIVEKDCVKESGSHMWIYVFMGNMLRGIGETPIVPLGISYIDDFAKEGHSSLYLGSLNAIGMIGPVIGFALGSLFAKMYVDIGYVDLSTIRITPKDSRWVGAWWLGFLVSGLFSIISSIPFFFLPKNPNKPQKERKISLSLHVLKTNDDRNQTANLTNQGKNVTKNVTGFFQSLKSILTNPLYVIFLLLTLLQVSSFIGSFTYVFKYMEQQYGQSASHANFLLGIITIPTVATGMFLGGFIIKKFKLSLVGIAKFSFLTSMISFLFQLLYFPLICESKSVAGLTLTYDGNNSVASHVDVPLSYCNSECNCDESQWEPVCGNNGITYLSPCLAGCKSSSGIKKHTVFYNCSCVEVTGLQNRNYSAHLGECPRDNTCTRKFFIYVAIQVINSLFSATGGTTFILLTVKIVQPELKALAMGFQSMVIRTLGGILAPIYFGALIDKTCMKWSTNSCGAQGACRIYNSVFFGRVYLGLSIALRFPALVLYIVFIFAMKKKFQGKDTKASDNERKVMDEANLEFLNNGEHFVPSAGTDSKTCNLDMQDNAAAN
Procedure: For the uptake transporter inhibition assay, cells were washed twice with 100 μL of the appropriate buffer (HK, pH 7.4) for OATP1B1, followed by HBSS (pH 7.4) for (NTCP, OAT1, OAT2v1, OATP1A2, and OATP1B3). Uptake experiments were carried out at 37 ± 1°C in 50 μL of the respective buffer containing the probe substrate and the compound or solvent. […] After the experiment, cells were washed twice with 100 μL of cold appropriate buffer and lysed with 50 μL of 0.1 M NaOH. Radiolabeled probe substrate transport was determined by measuring an aliquot (35 μL) from each well for liquid scintillation counting.

[6] = Stability in microsomes, mini pig; format: in vitro ADME; conditions: for average DEG [%]: minipig microsomes, with cofactors
Procedure: as §1

[7] = Monkey (Cynomolgus) microsomes, mean n = 2
[8] = rat, dose 200 mg/kg, Day 1, individual animals, 200 mg/kg
[9] = summary comparison CPL207280 vs TAK-875
[10] = Dog (Beagle) microsomes, mean n = 2
[11] = Mini pig microsomes, mean n = 2

Chain of MRP2 (Q92887 whole entry, the tested form may be a part): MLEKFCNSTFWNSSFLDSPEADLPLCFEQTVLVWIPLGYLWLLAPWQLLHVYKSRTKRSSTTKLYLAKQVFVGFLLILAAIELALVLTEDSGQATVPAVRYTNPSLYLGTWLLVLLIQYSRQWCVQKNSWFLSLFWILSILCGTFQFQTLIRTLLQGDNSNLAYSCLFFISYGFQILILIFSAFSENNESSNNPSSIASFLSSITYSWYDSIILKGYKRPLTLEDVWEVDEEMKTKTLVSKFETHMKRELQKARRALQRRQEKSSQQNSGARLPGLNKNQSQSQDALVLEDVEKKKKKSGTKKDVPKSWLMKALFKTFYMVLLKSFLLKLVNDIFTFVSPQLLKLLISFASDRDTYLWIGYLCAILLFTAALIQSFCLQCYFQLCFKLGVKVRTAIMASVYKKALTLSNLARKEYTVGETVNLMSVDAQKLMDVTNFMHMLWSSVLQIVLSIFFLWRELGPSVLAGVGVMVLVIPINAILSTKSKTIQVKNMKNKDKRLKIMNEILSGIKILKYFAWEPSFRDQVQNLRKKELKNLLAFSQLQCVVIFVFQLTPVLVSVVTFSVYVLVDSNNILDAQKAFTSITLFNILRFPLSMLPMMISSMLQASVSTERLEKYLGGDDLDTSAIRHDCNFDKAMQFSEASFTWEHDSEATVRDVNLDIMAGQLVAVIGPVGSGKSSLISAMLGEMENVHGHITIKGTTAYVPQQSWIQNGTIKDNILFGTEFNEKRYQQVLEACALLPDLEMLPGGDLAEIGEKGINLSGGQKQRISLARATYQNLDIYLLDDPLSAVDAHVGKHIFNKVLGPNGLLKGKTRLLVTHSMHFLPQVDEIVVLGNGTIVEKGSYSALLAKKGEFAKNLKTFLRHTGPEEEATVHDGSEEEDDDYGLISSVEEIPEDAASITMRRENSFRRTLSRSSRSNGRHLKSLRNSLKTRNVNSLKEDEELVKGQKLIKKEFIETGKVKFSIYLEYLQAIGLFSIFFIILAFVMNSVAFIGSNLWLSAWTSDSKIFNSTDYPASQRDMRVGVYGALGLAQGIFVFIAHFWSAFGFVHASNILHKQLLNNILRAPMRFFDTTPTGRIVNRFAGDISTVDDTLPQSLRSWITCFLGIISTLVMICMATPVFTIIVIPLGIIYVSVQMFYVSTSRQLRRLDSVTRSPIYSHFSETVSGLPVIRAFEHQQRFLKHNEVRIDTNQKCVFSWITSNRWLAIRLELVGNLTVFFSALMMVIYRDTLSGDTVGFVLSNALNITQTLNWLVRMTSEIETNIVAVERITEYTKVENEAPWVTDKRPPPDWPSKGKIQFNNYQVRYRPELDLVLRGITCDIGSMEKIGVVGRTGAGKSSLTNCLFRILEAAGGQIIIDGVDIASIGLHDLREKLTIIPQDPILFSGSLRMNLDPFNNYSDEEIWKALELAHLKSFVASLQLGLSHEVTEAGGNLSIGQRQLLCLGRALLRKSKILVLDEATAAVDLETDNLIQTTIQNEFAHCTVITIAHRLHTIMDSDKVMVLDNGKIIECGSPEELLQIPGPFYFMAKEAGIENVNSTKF

CC#C[C@@H](CC(=O)O)c1ccc(OCC(C)=C(C)C)cc1 [CPL207280]
half-life at 3 μM ([1]; Human microsomes, mean n = 2): 28 min
microsomal CLint at 3 μM ([1]; Human microsomes, mean n = 2): 49.2 µL/min/mg
stability classification in microsomes ([1]; based on the Clint values from different species, reference ranges by Cyprotex (human range given in legend)): unstable compound
average DEG [%] ([1]; 0 min): 100.0%
average DEG [%] ([1]; 20 min): 45.8942%
average DEG [%] ([1]; 40 min): 32.2635%
average DEG [%] ([1]; 60 min): 21.8%
half-life at 3 μM [2, 7]: 23 min
microsomal CLint at 3 μM [2, 7]: 60.9 µL/min/mg
average DEG [%] ([2]; 0 min): 100.0%
average DEG [%] ([2]; 20 min): 64.8%
average DEG [%] ([2]; 40 min): 34.1%
average DEG [%] ([2]; 60 min): 16.3%
reduction of viability (HepG2; HepG2, 48 h, 100 μM): 20%
viability (HepG2; HepG2, 48 h, concentrations up to 10 μM): Neither compound exhibited altered viability
times better tolerated by hepatocytes than TAK-875 (HepG2; hepatocytes (HepG2 and human primary cells)): 10 times
viability, normalized to DMSO-treated controls (HepG2; 0.78 uM): 122.329 and 97.5265 and 106.534
viability, normalized to DMSO-treated controls (HepG2; 3.125 uM): 108.127 and 98.0055
viability, normalized to DMSO-treated controls (HepG2; 6.25 uM): 101.696 and 107.84
viability, normalized to DMSO-treated controls (HepG2; 25 uM): 115.053 and 98.9684
viability, normalized to DMSO-treated controls (HepG2; 50 uM): 104.17 and 94.9794
viability, normalized to DMSO-treated controls (HepG2; 100 uM): 89.5534 and 112.297 and 99.381
viability at 48 h, 3.125 µM ([3]; 3.125 uM): 98.6%
viability at 48 h, 6.25 µM ([3]; 6.25 uM): 113%
viability at 48 h, 25 µM ([3]; 25 uM): 104%
viability at 48 h, 50 µM ([3]; 50 uM): 109%
Accumulation (counts per minute; CPM) with AMP (MRP2; conc 0.10 µM): 198 CPM and 164 CPM
Accumulation (counts per minute; CPM) with ATP (MRP2; conc 0.10 µM): 2936 CPM and 2989 CPM
Accumulation (counts per minute; CPM) with AMP (MRP2; conc 1.00 µM): 160 CPM and 140 CPM
Accumulation (counts per minute; CPM) with ATP (MRP2; conc 1.00 µM): 2976 CPM and 3333 CPM
Accumulation (counts per minute; CPM) with AMP (MRP2; conc 3.00 µM): 225 CPM and 205 CPM
Accumulation (counts per minute; CPM) with ATP (MRP2; conc 3.00 µM): 3200 CPM and 3253 CPM
Accumulation (counts per minute; CPM) with AMP (MRP2; conc 10.00 µM): 218 CPM and 206 CPM
Accumulation (counts per minute; CPM) with ATP (MRP2; conc 10.00 µM): 3353 CPM and 3206 CPM
Accumulation (counts per minute; CPM) with AMP (MRP2; conc 30.00 µM): 203 CPM and 192 CPM
Accumulation (counts per minute; CPM) with ATP (MRP2; conc 30.00 µM): 3191 CPM and 3541 CPM
Accumulation (counts per minute; CPM) with AMP (MRP2; conc 100.00 µM): 195 CPM and 185 CPM
Accumulation (counts per minute; CPM) with ATP (MRP2; conc 100.00 µM): 3680 CPM and 3660 CPM
Accumulation (counts per minute; CPM) with AMP (MRP2; conc 300.00 µM): 129 CPM and 125 CPM
Accumulation (counts per minute; CPM) with ATP (MRP2; conc 300.00 µM): 3852 CPM and 4100 CPM
MRP2 Estimated IC50 (95% CI of IC50) (MRP2; vesicles, up to 300μM, n = 2): no affinity
AUC ([4]; Wistar Han, rat, plasma, oral, 200 mg/kg, rat, dose 200 mg/kg, Day 1, individual animals, read-out: exposure - AUC): 1240 µg·h/mL
plasma conc ([4]; rat, 3 mg/kg i.v., 0.08 h, single animals, 3 mg/kg): 18185.2 and 14086.9 and 17991
plasma conc ([4]; rat, 3 mg/kg i.v., 0.5 h, single animals, 3 mg/kg): 13324.4 and 11131.5 and 13374.4
plasma conc ([4]; rat, 3 mg/kg i.v., 1 h, single animals, 3 mg/kg): 9899.4 and 7427.8 and 10049.5
plasma conc ([4]; rat, 3 mg/kg i.v., 2 h, single animals, 3 mg/kg): 3412.2 and 2931.7 and 2551.4
plasma conc ([4]; rat, 3 mg/kg i.v., 4 h, single animals, 3 mg/kg): 1459.2 and 957.7 and 1370.6
plasma conc ([4]; rat, 3 mg/kg i.v., 7 h, single animals, 3 mg/kg): 919.9 and 275.5 and 163.6 and 442.9
plasma conc ([4]; rat, 3 mg/kg i.v., 12 h, single animals, 3 mg/kg): 109.4 and 40.7 and 9.1 and 38.7
plasma conc ([4]; rat, 3 mg/kg p.o., 0.5 h, single animals, 3 mg/kg): 1251.2 and 962.3 and 1047.3 and 2942.9 and 2148.4
plasma conc ([4]; rat, 3 mg/kg p.o., 1 h, single animals, 3 mg/kg): 1116.7 and 1016.5 and 1560.5 and 2895.7 and 1904.8
plasma conc ([4]; rat, 3 mg/kg p.o., 2 h, single animals, 3 mg/kg): 850.9 and 932.5 and 1176.4 and 3463.8 and 1438.7
plasma conc ([4]; rat, 3 mg/kg p.o., 4 h, single animals, 3 mg/kg): 878.1 and 1000.4 and 1366.6 and 4024.4 and 840.4
plasma conc ([4]; rat, 3 mg/kg p.o., 8 h, single animals, 3 mg/kg): 569.6 and 2137.2 and 517.2 and 1993.4 and 909.2
plasma conc ([4]; rat, 3 mg/kg p.o., 12 h, single animals, 3 mg/kg): 324.7 and 347.6 and 456.6 and 204.4 and 474.2
plasma conc ([4]; rat, 3 mg/kg p.o., 24 h, single animals, 3 mg/kg): 48.1 and 66.5 and 10.8 and 7 and 230.9
Cmax [4, 8]: 183679 ng/mL and 165539 ng/mL and 190632 ng/mL and 189701 ng/mL and 159390 ng/mL
exposure - AUC [4, 8]: 1896 µg·h/mL and 1692 µg·h/mL and 1420 µg·h/mL and 1892 µg·h/mL and 1506 µg·h/mL
Cmax ([4]; rat, plasma, 200 mg/kg, rat, dose 200 mg/kg, Day 1, individual animals, read-out: Cmax): 198000 ng/mL
concentration at 0.08 h ([4]; rat, plasma, iv, 3 mg/kg, rat, 3 mg/kg i.v., 0.08 h, single animals, read-out: plasma conc): 19200 ng/mL
concentration at 0.5 h ([4]; rat, plasma, iv, 3 mg/kg, rat, 3 mg/kg i.v., 0.5 h, single animals, read-out: plasma conc): 16300 ng/mL
concentration at 1 h ([4]; rat, plasma, iv, 3 mg/kg, rat, 3 mg/kg i.v., 1 h, single animals, read-out: plasma conc): 10900 ng/mL
concentration at 2 h ([4]; rat, plasma, iv, 3 mg/kg, rat, 3 mg/kg i.v., 2 h, single animals, read-out: plasma conc): 3720 ng/mL
concentration at 4 h ([4]; rat, plasma, iv, 3 mg/kg, rat, 3 mg/kg i.v., 4 h, single animals, read-out: plasma conc): 1570 ng/mL
Tmax ([4]; rat, plasma, iv, 3 mg/kg, rats, 3 mg/kg i.v.): 4.98 min
Cmax ([4]; rat, plasma, iv, 3 mg/kg, rats, 3 mg/kg i.v., n = 5, read-out: Cmax): 17400 ± 2250 ng/mL
AUC ([4]; rat, plasma, iv, 3 mg/kg, rats, 3 mg/kg i.v., read-out: AUC): 27.1 ± 1.62 µg·h/mL
bioavailability ([4]; rat, plasma, oral, rats, 3 mg/kg p.o. vs i.v., read-out: F (bioavailability)): 63%
Tmax ([4]; rat, plasma, po, 3 mg/kg, rats, 3 mg/kg p.o.): 60 min
AUC ([4]; rat, plasma, po, 3 mg/kg, rats, 3 mg/kg p.o., read-out: AUC): 17.6 ± 4.08 µg·h/mL
Vd ([4]; rat, plasma, rats, 3 mg/kg): 0.2 ± 0.01 L/kg
k el ([4]; rat, plasma, rats, 3 mg/kg): 0.000144 s⁻¹
greater Kel than TAK-875 ([4]; rats, 3 mg/kg): 2 x
Bioavailability in rats [4, 9]: >
Exposure in rat plasma for the same dose [4, 9]: ≥
half-life at 3 μM [5, 10]: 81 min
microsomal CLint at 3 μM [5, 10]: 17.1 µL/min/mg
average DEG [%] ([5]; 0 min): 100.0%
average DEG [%] ([5]; 20 min): 86.5%
average DEG [%] ([5]; 40 min): 74.9%
average DEG [%] ([5]; 60 min): 59.3%
IC50 (OATP1B3): 42.9 µM
half-life at 3 μM [6, 11]: 31 min
microsomal CLint at 3 μM [6, 11]: 45 µL/min/mg
average DEG [%] ([6]; 0 min): 100.0%
average DEG [%] ([6]; 20 min): 67.0%
average DEG [%] ([6]; 40 min): 40.9%
average DEG [%] ([6]; 60 min): 26.3%
